Read-outs that look alike come from different tables or passages of the source.
Test system: adults with previously untreated higher-risk MDS
Conditions: with azacitidine
Experimental: A multicenter, non-randomized Phase 1b study in adults with previously untreated higher-risk MDS, defined as IPSS risk categories of Int-2 or High (IPSS overall score ≥1.5) was initiated. The original protocol randomized patients into 1 of 3 treatment groups: venetoclax 800 mg + azacitidine, venetoclax 400 mg + azacitidine, and azacitidine monotherapy. Under the original protocol, venetoclax was administered on Days 1 through 28 of each 28-day-cycle and dosing was initiated according to a ramp-up dosing schedule in Cycle 1.
Subjects 18 years or older diagnosed with treatment-naïve IPSS intermediate-2 or high-risk myelodysplastic syndromes with ECOG ≤2 were enrolled. For this study, inclusion criteria included the following: • 1. Subject must be ≥18 years of age. • 2. Subject must have documented diagnosis of previously untreated de novo MDS with: • a. International Prognostic Scoring System (IPSS) risk categories Intermediate-2 or High (i.e., minimum IPSS score of 1.5) OR Revised IPSS (IPSS-R) categories Intermediate, High or Very High (score of >3); and • b. Presence of <20% bone marrow blasts per bone marrow biopsy/aspirate. • 3. Subject must have an Eastern Cooperative Oncology Group (ECOG) performance score of ≤2.
Azacitidine 75 mg/m^2 (intravenous or subcutaneous daily) was administered for 7 days and venetoclax was administered at 400 mg for 14 days in each 28 day cycle. In both cohorts, dose modification during Cycle 1 was not recommended. Dose modifications in subsequent cycles were prescribed for adverse events. […] In subsequent cycles, venetoclax duration could be shortened to 9 days of each cycle. In Safety Expansion Cohort 2 (SE2), dose modification guidelines recommended stepwise reductions, first in azacitidine dose (first to 50 mg/m^2, then 36 mg/m^2) and subsequently in venetoclax duration to 7 days of each cycle (venetoclax 400 mg) as shown in Table 4. The impact of each dose modification strategy on safety and efficacy in SE1 versus SE2 was compared. Worsening of treatment-emergent adverse events grades from baseline was analyzed by cycle. Responses were evaluated using IWG 2006 criteria. Analyses included all subject who received ≥1 dose of study drug.
After a previous interruption of treatment, delay starting the next cycle, onset of adverse events associated with hematological toxicity, significant reduction of neutrophils, or significant reduction of platelets, a treatment dose reduction may be indicated. […] Venetoclax and azacitidine were resumed on the same day after any delays or interruptions in treatment.

SMILES: CC1(C)CCC(CN2CCN(c3ccc(C(=O)NS(=O)(=O)c4ccc(NCC5CCOCC5)c([N+](=O)[O-])c4)c(Oc4cnc5[nH]ccc5c4)c3)CC2)=C(c2ccc(Cl)cc2)C1 [Venetoclax, 4-(4-{[2-(4-chlorophenyl)-4,4-dimethylcyclohex-1-en-1-yl]methyl}piperazin-1-yl)-N-({3nitro-4-[(tetrahydro-2H-pyran-4-ylmethyl)amino]phenyl}sulfonyl)-2-(1H-pyrrolo[2,3-b]pyridin5-yloxy)benzamide]
- Venetoclax dose delay by end of each cycle (Cycle 2, SE1, n = 22): 14 (63) n (%)
- Venetoclax dose delay by end of each cycle, Median # days (range) (Cycle 2, SE1, n = 22): 7.5 (1-21) days
- Venetoclax dose delay by end of each cycle (Cycle 2, SE2, n = 21): 13 (62) n (%)
- Venetoclax dose delay by end of each cycle, Median # days (range) (Cycle 2, SE2, n = 21): 8 (5-21) days
- Venetoclax dose delay by end of each cycle (Cycle 3, SE1, n = 22): 12 (55) n (%)
- Venetoclax dose delay by end of each cycle, Median # days (range) (Cycle 3, SE1, n = 22): 14 (3-28) days
- Venetoclax dose delay by end of each cycle (Cycle 3, SE2, n = 21): 10 (48) n (%)
- Venetoclax dose delay by end of each cycle, Median # days (range) (Cycle 3, SE2, n = 21): 8.5 (1-48) days
- Venetoclax dose delay by end of each cycle (Cycle 4, SE1, n = 22): 8 (36) n (%)
- Venetoclax dose delay by end of each cycle, Median # days (range) (Cycle 4, SE1, n = 22): 17 (1-54) days
- Venetoclax dose delay by end of each cycle (Cycle 4, SE2, n = 21): 6 (28) n (%)
- Venetoclax dose delay by end of each cycle, Median # days (range) (Cycle 4, SE2, n = 21): 9 (6-43) days
- Venetoclax dose delay by end of each cycle (Cycle 5, SE1, n = 22): 7 (32) n (%)
- Venetoclax dose delay by end of each cycle, Median # days (range) (Cycle 5, SE1, n = 22): 14 (3-28) days
- Venetoclax dose delay by end of each cycle (Cycle 5, SE2, n = 21): 9 (43) n (%)
- Venetoclax dose delay by end of each cycle, Median # days (range) (Cycle 5, SE2, n = 21): 14 (1-97) days
- Venetoclax dose delay by end of each cycle (Cycle 6, SE1, n = 22): 7 (32) n (%)
- Venetoclax dose delay by end of each cycle, Median # days (range) (Cycle 6, SE1, n = 22): 7 (1-21) days
- Venetoclax dose delay by end of each cycle (Cycle 6, SE2, n = 21): 5 (24) n (%)
- Venetoclax dose delay by end of each cycle, Median # days (range) (Cycle 6, SE2, n = 21): 14 (6-91) days
- # of reductions in Venetoclax duration (due to hematologic toxicity) (SE1, n = 22): 3 (14)
- Patients with ≥1 Ven dose amount reduction (SE1, n = 22): 10 (45) n (%)
- Venetoclax: Median days to duration reduction (SE1, n = 22): 52 days
- # of reductions in Venetoclax duration (due to hematologic toxicity) (SE2, n = 21): 0
- Patients with ≥1 Ven dose amount reduction (SE2, n = 21): 10 (48) n (%)

From patent publication US20220370481A1, “VENETOCLAX DOSING REGIMENS FOR USE IN TREATING MYELODYSPLASTIC SYNDROMES IN COMBINATION WITH A CYP3A INHIBITOR AND AZACITIDINE” (priority 2021, published 2022)
